Measurements taken from ChEMBL document CHEMBL1144507, “Synthesis and antifungal activity of (Z)-5-arylidenerhodanines” (2007).
Values after ≈ are worked out from the molar mass of the structure shown.

Columns and labels:
[1] = system: Trichophyton benhamiae; experiment: Antifungal activity against Trichophyton mentagrophytes C738 after 48 hrs; type: functional, Arthroderma benhamiae
[2] = system: Trichophyton rubrum; experiment: Antifungal activity against Trichophyton rubrum C137 after 48 hrs; type: functional
[3] = system: Trichophyton benhamiae; experiment: Antifungal activity against Trichophyton mentagrophytes C539 after 48 hrs; type: functional, Arthroderma benhamiae
[4] = system: Trichophyton rubrum; experiment: Antifungal activity against Trichophyton rubrum C136 after 48 hrs; type: functional
[5] = system: Trichophyton rubrum; experiment: Antifungal activity against Trichophyton rubrum C135 after 48 hrs; type: functional
[6] = system: Trichophyton benhamiae; experiment: Antifungal activity against Trichophyton mentagrophytes C364 after 48 hrs; type: functional, Arthroderma benhamiae
[7] = system: Trichophyton rubrum; experiment: Antifungal activity against Trichophyton rubrum C140 after 48 hrs; type: functional
[8] = system: Trichophyton rubrum; experiment: Antifungal activity against Trichophyton rubrum C110 after 48 hrs; type: functional
[9] = system: Trichophyton benhamiae; experiment: Antifungal activity against Trichophyton mentagrophytes C108 after 48 hrs; type: functional, Arthroderma benhamiae
[10] = system: Trichophyton benhamiae; experiment: Antifungal activity against Trichophyton mentagrophytes C943 after 48 hrs; type: functional, Arthroderma benhamiae
[11] = system: Trichophyton rubrum; experiment: Antifungal activity against Trichophyton rubrum C139 after 48 hrs; type: functional

Structure (SMILES): CN(C/C=C/C#CC(C)(C)C)Cc1cccc2ccccc12 [TERBINAFINE]
- MIC [1]: 6 ng/mL (≈ 0.0206 µM)
- MIC [2]: 6 ng/mL (≈ 0.0206 µM)
- MIC [3]: 6 ng/mL (≈ 0.0206 µM)
- MIC [4]: 6 ng/mL (≈ 0.0206 µM)
- MIC [5]: 6 ng/mL (≈ 0.0206 µM)
- MIC [6]: 6 ng/mL (≈ 0.0206 µM)
- MIC [7]: 3 ng/mL (≈ 0.0103 µM)
- MIC [8]: 6 ng/mL (≈ 0.0206 µM)
- MIC [9]: 6 ng/mL (≈ 0.0206 µM)
- MIC [10]: 6 ng/mL (≈ 0.0206 µM)
- MIC [11]: 12 ng/mL (≈ 0.0412 µM)
